Assay results reported in patent publication US20190133968A1, “Applications of benzophenones in preparation of drug” (SHANXI MEDICAL UNIVERSITY, priority 2016, published 2019).

Experiments:
chronic nephritis rats = assay: chronic nephritis rat model (passive Heymann nephritis); format: in vivo, SD rats; conditions: dexamethasone 0.1 mg/kg, gavage; for IL-1α / IL-1β / IL-6 / IL-10 / Scr: serum
Procedure: (§1) The solid dispersions are prepared through a solvent method, comprising steps of: respectively precisely weighing LM49, PVPK30 and tween80 with a weight ratio of 1:5:1, and A8, PVPK30 and tween80 with a weight ratio of 1:4:1; dissolving with appropriate absolute ethyl alcohol, continuously stirring, and uniformly mixing; placing on the water bath at 60° C., evaporating and removing the absolute ethyl alcohol, and obtaining a viscous material; placing in the freezer at −20° C., and freezing for 2 hours; taking out from the freezer, then placing in the vacuum drying oven, and drying for 24 hours; after becoming embrittlement, smashing and sieving with a sieve of 80 meshes, and then placing in the dryer for storage.
The passive Heymann nephritis is the classic model for researching the human chronic nephrosis. Thus, the present invention researches the effects of the two disclosed compounds on preventing the chronic nephritis with the model.
Ninety male SD rats having a weight of 180-220 g are selected, wherein: ten rats are selected as a blank group, and the remaining rats are used for preparing the rat Heymann nephritis models according to the method (disclosed in Journal of Proteomics, 2012, 75(3): pages 3866-3876). The successively established model rats are randomly divided into the model group, the positive control group (dexamethasone with a concentration of 0.1 mg/kg), the LM49 solid dispersion low-dose group (with the drug concentration of 3 mg/kg), the LM49 solid dispersion medium-dose group (with the drug concentration of 9 mg/kg), the LM49 solid dispersion high-dose group (with the drug concentration of 27 mg/kg), the A8 solid dispersion low-dose group (with the drug concentration of 3 mg/kg), the A8 solid dispersion medium-dose group (with the drug concentration of 9 mg/kg), and the A8 solid dispersion high-dose group (with the drug concentration of 27 mg/kg).
The rats of the blank group and the model group are administrated with the normal saline of same volume, and the rats of the other groups are respectively administrated with the drugs of the corresponding dose, by gavage, every day from model establishment for four weeks.
The blood of the rats of all groups is drawn at the second week and the fourth week from model establishment and 24-hour urine thereof is collected, for respectively measuring the contents of the urinary albumin, serum creatinine (Scr) in the serum, BUN, IL-1α, IL-1β, IL-6 and IL-10.
The data is represented in mean±(standard deviation) (x±s) and processed with the SPSS 19.0 statistical software. The one-way analysis of variance (ANOVA) is adopted for comparison among the groups, and then the LSD-Test is adopted for pairwise comparison. The differences of P<0.05 and P<0.01 are statistically significant.

[1] = system: Escherichia coli ATCC25922 standard strain; assay: urinary and renal bacterial culture of acute pyelonephritis rats; format: in vivo, SD rats; conditions: norfloxacin 66.7 mg/kg, gavage, 10 days
Procedure: Ninety male SD rats having a weight of 180-220 g are selected, wherein: ten rats are selected as a sham-operated group (only being processed with ligation, without injecting with Escherichia coli), and the remaining rats are injected with Escherichia coli ATCC25922 standard strain having a concentration of 10^8/ml according to the method (disclosed in the Chinese Journal of Laboratory Animal Science, 1998, 8(1): pages 31-34) for preparing the acute pyelonephritis model rats.
After three days, urine of the rats is collected for bacterial culture, and the growth situation of the bacteria is observed. If the result is positive, the model rats are successively established; the unqualified rats are excluded, and the operation is made again for complementing the rats. The successively established model rats are randomly divided into the model group, the norfloxacin group (66.7 mg/kg), the LM49 solid dispersion low-dose group (with the drug concentration of 3 mg/kg), the LM49 solid dispersion medium-dose group (with the drug concentration of 9 mg/kg), the LM49 solid dispersion high-dose group (with the drug concentration of 27 mg/kg), the A8 solid dispersion low-dose group (with the drug concentration of 3 mg/kg), the A8 solid dispersion medium-dose group (with the drug concentration of 9 mg/kg), and the A8 solid dispersion high-dose group (with the drug concentration of 27 mg/kg).
The rats of the sham-operated group and the model group are administrated with the normal saline of same volume by gavage, and the rats of the other groups are respectively administrated with the drugs of the corresponding dose, once a day for consecutive ten days.
After finishing administration, urine of the rats of all groups is collected (for observing the bacterial growth situation). The abdominal aorta blood of the rats is drawn (for measuring the blood routine, CD4/CD8, urine creatinine and serum creatinine in the serum; and for measuring contents of IL-1α, IL-1β, IL-6, IL-10 and MCP-1 in the serum with the ELISA method). Two kidneys of each rat are cut (wherein a part is homogenated for bacterial culture, and the other part is used for observing the pathomorphology change).

DN rats = assay: type II diabetic nephropathy (DN) rat model (high-sugar high-fat diet + streptozocin); format: in vivo, SD (Sprague Dawley) rats; conditions: DN rats, captopril 15 mg/kg, gavage, 6 weeks
Procedure: as §1
The healthy adult male SD rats (having a weight of 180-220 g) are fed with the high-sugar and high-fat diet for 4 weeks; the rats are fasting overnight; and streptozocin (STZ) of 40 mg/kg is intraperitoneally injected into the rats. The rats of normal control group are injected with the sodium citrate buffer of same volume; 72 hours later, the rats are fasting for 12 hours. […] During the administration period, the successfully established model rats are still fed with the high-sugar and high-fat diet, while the rats of the normal control group are fed with the normal diet.
After administration for 6 weeks, 6-hour urine of the rats is collected with the metabolism cage.
The rats are fasting overnight and anesthetized intraperitoneally, then the abdominal aorta blood thereof is drawn for measuring the related indexes. The two kidneys of each rat are washed with the normal saline; weights of the kidneys are recorded; and the kidney coefficient (weights of two kidneys/body weight) is calculated. The renal tissues (comprising the glomerulus and renal tubules) at the same part of the left kidney are cut lengthwise and immersed in the 10% neutral formalin for pathomorphology analysis, and the other parts of the left kidney are used for biochemical index measurement; the right kidney is used for mechanism research and stored in the freezer at −80° C.
After successfully establishing the model rats, expect the normal control group (ten rats), the remaining rats are randomly divided into eight groups, wherein each group has twelve rats. The eight groups are respectively the model group, the LM49 solid dispersion low-dose group (with the drug concentration of 3 mg/kg), the LM49 solid dispersion medium-dose group (with the drug concentration of 9 mg/kg), the LM49 solid dispersion high-dose group (with the drug concentration of 27 mg/kg), the A8 solid dispersion low-dose group (with the drug concentration of 3 mg/kg), the A8 solid dispersion medium-dose group (with the drug concentration of 9 mg/kg), the A8 solid dispersion high-dose group (with the drug concentration of 27 mg/kg), and the captopril control group (with the drug concentration of 15 mg/kg).
Administration Way: By Gavage.
The rats of the normal control group and the model group are administrated with the normal saline of 1.0 ml/100 g; the rats of the positive control group, the LM49 solid dispersion high-dose, medium-dose and low-dose groups and the A8 solid dispersion high-dose, medium-dose and low-dose groups are respectively administrated with the drugs of different concentrations, and the administration volume is 1.0 ml/100 g.
The solid dispersions are dissolved by the normal saline; and the rats of the positive control group are administrated with the 0.5% CMC-Na (sodium carboxymethyl cellulose) suspension.
The rats are administrated seven days a week, for totally six weeks.
The IBM SPSS Statistics 20 software is used for data processing, and the data is represented in x±s. The one-way analysis of variance (ANOVA) is adopted for comparison among the groups. According to the homogeneity test results of variance, if the variance is equal, the LSD (least significant difference) test is adopted; if the variance is unequal, the Dunnett's T3 test is adopted. […]

**Q.** With `C[C@@H]1C[C@H]2[C@@H]3CCC4=CC(=O)C=C[C@]4(C)[C@@]3(F)[C@@H](O)C[C@]2(C)[C@@]1(O)C(=O)CO` [Dexamethasone, dexamethasone, reference compound] as the molecule, how does the “24-hour urinary protein quantitation” value (chronic nephritis rats; Fourth week) read?
**A.** 19.99 ± 3.5^ΔΔ mg/24 h

**Q.** What about the “24-hour urinary protein quantitation” value (chronic nephritis rats; Second week) of the same molecule?
**A.** 20.87 ± 4.4^Δ mg/24 h

**Q.** What about the IL-1α (chronic nephritis rats; Fourth week) of the same molecule?
**A.** 9.33 ± 4.22^Δ pg/ml

**Q.** And the IL-1β (chronic nephritis rats; Fourth week)?
**A.** 163.44 ± 59.31^Δ pg/ml

**Q.** What about the IL-6 (chronic nephritis rats; Fourth week) of the same molecule?
**A.** 61.31 ± 25.66^ΔΔ pg/ml

**Q.** And the IL-10 (chronic nephritis rats; Fourth week)?
**A.** 29.44 ± 59.31^ΔΔ pg/ml

**Q.** What about the Scr (chronic nephritis rats; Fourth week) of the same molecule?
**A.** 44.32 ± 13.3 µmol/L

**Q.** And the IL-1α (chronic nephritis rats; Second week)?
**A.** 10.47 ± 2.45^Δ pg/ml

**Q.** What about the IL-1β (chronic nephritis rats; Second week) of the same molecule?
**A.** 184.55 ± 57.22^Δ pg/ml

**Q.** What about the IL-6 (chronic nephritis rats; Second week) of the same molecule?
**A.** 87.01 ± 31.44^ΔΔ pg/ml

**Q.** What about the IL-10 (chronic nephritis rats; Second week) of the same molecule?
**A.** 51.09 ± 7.55 pg/mL

**Q.** What about the Scr (chronic nephritis rats; Second week) of the same molecule?
**A.** 46.22 ± 10.4 µmol/L

**Q.** Which results are given for `CCn1cc(C(=O)O)c(=O)c2cc(F)c(N3CCNCC3)cc21` [Norfloxacin, norfloxacin, reference compound]?
**A.** Renal bacterial culture score ([1]; mean score, scale 1-4 of Table 10 (colony number <10, >10, >100, >1000)): 1.2 ± 0.42^ΔΔ; Urinary bacterial A value (OD600 nm) ([1]; urine culture): 0.254 ± 0.082^ΔΔ

**Q.** Which results are given for `C[C@H](CS)C(=O)N1CCC[C@H]1C(=O)O` [captopril, reference compound]?
**A.** BUN (DN rats): 10.91 ± 1.15 mmol/L; CREA (DN rats): 52.15 ± 3.40 µmol/L; Glycated hemoglobin (DN rats): 8.88 ± 0.55%; Urinary protein (DN rats; 6-hour urine): 5.93 ± 1.59^□□ mg/6 h; mALB (microalbumin in urine) (DN rats; 6-hour urine): 76.69 ± 7.69^□□ μg/6 h; ICAM-1 (DN rats; renal tissues): 246.36 ± 49.25 pg/mgprog; IL-1β (DN rats; renal tissues): 102.32 ± 22.70 pg/mgprog; IL-6 (DN rats; renal tissues): 107.50 ± 20.22^□□ pg/mgprog; MDA (DN rats; renal tissues): 1.04 ± 0.24 nmol/mgprog; NF-κB (DN rats; renal tissues): 174.49 ± 45.87^□□ pg/mgprog; SOD (DN rats; renal tissues): 4.42 ± 0.94 U/mgprog; T-AOC (DN rats; renal tissues): 1.48 ± 0.41 U/mgprog; TGF-β1 (DN rats; renal tissues): 36.72 ± 11.42^□□ pg/mgprot; TNF-α (DN rats; renal tissues): 292.79 ± 81.62^□ pg/mgprog; VCAM-1 (DN rats; renal tissues): 23.79 ± 3.50 pg/mgprog; Glucose (GLU) (DN rats; serum): 16.66 ± 4.34^□□ mmol/L; HDL-C (DN rats; serum): 1.19 ± 0.35 mmol/L; LDL-C (DN rats; serum): 1.80 ± 0.27^□□ mmol/L; TC (DN rats; serum): 3.06 ± 0.43^□□ mmol/L; TG (DN rats; serum): 0.37 ± 0.09^□□ mmol/L; UA (DN rats; serum): 49.00 ± 3.24^□□ μmol/L; Kidney coefficient (DN rats; weights of two kidneys/body weight): 1.02 ± 0.06%
